Measurements reported in PMC6300691, “Enhancement of Heat Stability and Kinetic Parameters of the Maize Endosperm ADP-Glucose Pyrophosphorylase by Mutagenesis of Amino Acids in the Small Subunit With High B Factors” (Frontiers in Plant Science, 2018).
Changes are numbered by the printed parent chain.

Key:
[1] = target: T1, SH2-ISM (Zea mays, UniProt P55241+Q947C0, Q96G/D161G/A443R); experiment: Activation constant from initial rates with varied 3-PGA (0-1 mM) at 2 mM ATP and 2 mM G-1-P, pH 7.4, 15 mM MgCl2, fitted to V = Vmin + Vmax*X/(Ka + X).; format: biochemical
T1 construct: SH2-ISM with wild type BT2 (SH2-ISM/BT2-WT), E. coli, purified
T1 sequence (Q947C0 1-475): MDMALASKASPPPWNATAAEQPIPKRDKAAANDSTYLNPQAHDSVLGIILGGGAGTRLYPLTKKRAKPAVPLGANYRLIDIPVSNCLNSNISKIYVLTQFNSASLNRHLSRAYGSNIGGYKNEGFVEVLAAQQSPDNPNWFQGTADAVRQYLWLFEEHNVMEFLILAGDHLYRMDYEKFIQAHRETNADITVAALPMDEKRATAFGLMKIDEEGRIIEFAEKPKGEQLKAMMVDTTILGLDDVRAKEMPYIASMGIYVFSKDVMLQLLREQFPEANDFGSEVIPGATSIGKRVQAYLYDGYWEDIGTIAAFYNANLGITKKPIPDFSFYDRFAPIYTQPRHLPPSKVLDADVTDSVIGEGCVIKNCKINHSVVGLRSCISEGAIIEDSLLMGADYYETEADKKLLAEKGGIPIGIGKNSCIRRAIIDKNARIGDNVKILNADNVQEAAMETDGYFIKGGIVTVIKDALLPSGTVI
T1 sequence (P55241 46-516 Q96G/D161G/A443R): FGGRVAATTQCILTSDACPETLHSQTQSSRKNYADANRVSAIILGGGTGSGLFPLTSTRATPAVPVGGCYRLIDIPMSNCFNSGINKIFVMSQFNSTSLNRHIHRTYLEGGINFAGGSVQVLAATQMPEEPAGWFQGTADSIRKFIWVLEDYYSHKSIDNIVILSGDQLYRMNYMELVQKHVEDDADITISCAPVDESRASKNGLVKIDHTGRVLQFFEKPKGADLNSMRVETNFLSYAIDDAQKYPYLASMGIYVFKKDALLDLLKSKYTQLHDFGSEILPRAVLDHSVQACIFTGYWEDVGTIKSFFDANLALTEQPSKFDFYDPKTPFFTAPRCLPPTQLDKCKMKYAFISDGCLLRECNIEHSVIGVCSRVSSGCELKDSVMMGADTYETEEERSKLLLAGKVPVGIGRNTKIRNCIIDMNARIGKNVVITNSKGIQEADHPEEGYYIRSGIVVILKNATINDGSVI
Description: (§1) All reactions were developed as above.

[2] = target: T2, E123Q (Zea mays, UniProt P55241+Q947C0, E123Q); experiment: as above; format: biochemical
T2 construct: BT2 variant with wild type SH2, E. coli, purified
T2 sequence (Q947C0 1-475 E123Q): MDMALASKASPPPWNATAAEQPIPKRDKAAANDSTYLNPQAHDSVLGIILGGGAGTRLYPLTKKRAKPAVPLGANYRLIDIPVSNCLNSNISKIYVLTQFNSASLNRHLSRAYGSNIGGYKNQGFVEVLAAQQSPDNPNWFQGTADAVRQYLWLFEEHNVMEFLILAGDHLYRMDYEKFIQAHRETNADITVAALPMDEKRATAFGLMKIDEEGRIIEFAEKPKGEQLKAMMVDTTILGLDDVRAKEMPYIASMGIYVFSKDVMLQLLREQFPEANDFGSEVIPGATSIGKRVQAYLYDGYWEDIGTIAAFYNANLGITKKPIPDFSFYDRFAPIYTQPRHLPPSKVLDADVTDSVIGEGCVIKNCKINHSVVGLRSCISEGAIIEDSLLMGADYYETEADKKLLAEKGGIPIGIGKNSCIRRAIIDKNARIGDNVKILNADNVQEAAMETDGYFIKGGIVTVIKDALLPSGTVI
T2 sequence (P55241 46-516): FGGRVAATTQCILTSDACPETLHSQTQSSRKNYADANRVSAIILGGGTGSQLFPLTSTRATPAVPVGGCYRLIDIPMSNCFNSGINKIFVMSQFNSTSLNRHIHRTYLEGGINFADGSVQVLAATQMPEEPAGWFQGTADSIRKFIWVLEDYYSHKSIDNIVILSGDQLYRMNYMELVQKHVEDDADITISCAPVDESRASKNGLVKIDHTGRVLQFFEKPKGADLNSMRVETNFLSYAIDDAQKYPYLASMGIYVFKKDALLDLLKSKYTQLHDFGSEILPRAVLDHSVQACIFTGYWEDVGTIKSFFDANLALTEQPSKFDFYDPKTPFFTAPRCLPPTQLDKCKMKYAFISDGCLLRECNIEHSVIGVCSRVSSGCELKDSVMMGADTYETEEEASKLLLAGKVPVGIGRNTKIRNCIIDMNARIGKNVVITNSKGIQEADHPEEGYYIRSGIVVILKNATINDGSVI
Description: as §1

[3] = target: T3, D242H (Zea mays, UniProt P55241+Q947C0, D242H); experiment: as above; format: biochemical
T3 construct: BT2 variant with wild type SH2, E. coli, purified
T3 sequence (Q947C0 1-475 D242H): as the sequence (Q947C0 1-475 E123Q) above, with Q123E, D242H counted along it
Description: as §1

[4] = target: T4, L404H (Zea mays, UniProt P55241+Q947C0, L404H); experiment: as above; format: biochemical
T4 construct: BT2 variant with wild type SH2, E. coli, purified
T4 sequence (Q947C0 1-475 L404H): as the sequence (Q947C0 1-475 E123Q) above, with Q123E, L404H counted along it
Description: as §1

[5] = target: T5, E123V (Zea mays, UniProt P55241+Q947C0, E123V); experiment: as above; format: biochemical
T5 construct: BT2 variant with wild type SH2, E. coli, purified
T5 sequence (Q947C0 entry or part of it E123V): as the sequence (Q947C0 1-475 E123Q) above, with Q123V counted along it
Description: as §1

[6] = target: T6, K403E (Zea mays, UniProt P55241+Q947C0, K403E); experiment: as above; format: biochemical
T6 construct: BT2 variant with wild type SH2, E. coli, purified
T6 sequence (Q947C0 1-475 K403E): as the sequence (Q947C0 1-475 E123Q) above, with Q123E, K403E counted along it
Description: as §1

[7] = target: T7, K403L (Zea mays, UniProt P55241+Q947C0, K403L); experiment: as above; format: biochemical
T7 construct: BT2 variant with wild type SH2, E. coli, purified
T7 sequence (Q947C0 1-475 K403L): as the sequence (Q947C0 1-475 E123Q) above, with Q123E, K403L counted along it
Description: as §1

[8] = target: T8, E123G, R331K (Zea mays, UniProt P55241+Q947C0, E123G/R331K); experiment: as above; format: biochemical
T8 construct: BT2 variant with wild type SH2, E. coli, purified
T8 sequence (Q947C0 1-475 E123G/R331K): as the sequence (Q947C0 1-475 E123Q) above, with Q123G, R331K counted along it
Description: as §1

[9] = target: T9, E123G (Zea mays, UniProt P55241+Q947C0, E123G); experiment: as above; format: biochemical
T9 construct: BT2 variant with wild type SH2, E. coli, purified
T9 sequence (Q947C0 entry or part of it E123G): as the sequence (Q947C0 1-475 E123Q) above, with Q123G counted along it
Description: as §1

[10] = target: T10, E123G, R331K, K402R (BT2-BF) (Zea mays, UniProt P55241+Q947C0, E123G/R331K/K402R); experiment: as above; format: biochemical
T10 construct: BT2-BF with wild type SH2 (SH2-WT/BT2-BF), E. coli, purified
T10 sequence (Q947C0 1-475 E123G/R331K/K402R): T1 sequence (Q947C0 1-475) with E123G, R331K, K402R
T10 sequence (P55241 46-516): T1 sequence (P55241 46-516 Q96G/D161G/A443R) with G51Q, G116D, R398A
Description: as §1

[11] = target: T11, R331P (Zea mays, UniProt P55241+Q947C0, R331P); experiment: as above; format: biochemical
T11 construct: BT2 variant with wild type SH2, E. coli, purified
T11 sequence (Q947C0 1-475 R331P): as the sequence (Q947C0 1-475 E123Q) above, with Q123E, R331P counted along it
Description: as §1

[12] = target: wt (SH2-WT/BT2-WT) (Zea mays, UniProt P55241+Q947C0); conditions: read-out: Km (mM), varied substrate ATP, Pi inhibition in the absence of 3-PGA
Description: Pi inhibition was carried out in both the presence and absence of 3-PGA with the Pi and substrate concentrations listed below.
Pi inhibition patterns in the presence and absence of 3PGA were also determined. Pi inhibition patterns were obtained by varying one substrate at several fixed concentrations of Pi, while holding the co-substrate at constant sub-saturating levels.

O=C(O)[C@H](O)COP(=O)(O)O [3-PGA, 3-phosphoglycerate (3-phosphoglyceric acid)]
3-PGA Ka (activation constant) [1]: 0.056 ± 0.008 | 3-PGA Ka (activation constant) [2]: 0.12 ± 0.022 | 3-PGA Ka (activation constant) [3]: 0.077 ± 0.0077 | 3-PGA Ka (activation constant) [4]: 0.05 ± 0.008 | 3-PGA Ka (activation constant) [5]: 0.10 ± 0.036 | 3-PGA Ka (activation constant) [6]: 0.14 ± 0.015 | 3-PGA Ka (activation constant) [7]: 0.41 ± 0.049 | 3-PGA Ka (activation constant) [8]: 0.183 ± 0.024 | 3-PGA Ka (activation constant) [9]: 0.090 ± 0.023 | 3-PGA Ka (activation constant) [10]: 0.060 ± 0.0097 | 3-PGA Ka (activation constant) [11]: 0.094 ± 0.013

Nc1ncnc2c1ncn2[C@@H]1O[C@H](COP(=O)(O)OP(=O)(O)OP(=O)(O)O)[C@@H](O)[C@H]1O [ATP, adenosine 5'-triphosphate]
Km [12]: 20.4 ± 10.1 mM
